US10604489B2, “Compounds for the treatment of pain” (priority 2018, dated 2020)
Counter-ions that a name gives are not always drawn.

Tests used:
[1] = molecular target: μ-receptor (Homo sapiens (Human), UniProt P35372); test: Receptor binding, competitive displacement of [3H]DAMGO; settings: 0.25 nM [3H]DAMGO, CHO cell membrane protein, 60 min at 25° C.
Experimental: The Ki (binding affinity) for μ-receptor was determined with a previously described method using a competitive displacement assay (Neumeyer et al., J. Med. Chem., v. 46, p. 5162-5170, 2003). Membrane protein from CHO (Chinese Hamster Ovarian) cells that stably expressed one type of the cloned human opioid receptor were incubated with 12 different concentrations of the compound in the presence of 0.25 nM [3H]DAMGO, 0.2 nM [3H]naltrindole or 1 nM [3H]U69,593 in a final volume of 1 mL of 50 mM Tris-HCl, pH 7.5 at 25° C. Incubation times of 60 min were used for [3H]DAMGO and [3H]U69,593. Because of a slower association of [3H]naltrindole with the receptor, a 3 h incubation was used with this radioligand. Samples incubated with [3H]naltrindole also contained 10 mM MgCl2 and 0.5 mM phenylmethylsulfonyl fluoride. Nonspecific binding was measured by inclusion of 10 μM naloxone. The binding was terminated by filtering the samples through Schleicher & Schuell No. 32 glass fiber filters using a Brandel 48-well cell harvester. The filters were subsequently washed three times with 3 mL of cold 50 mM Tris-HCl, pH 7.5, and were counted in 2 mL Ecoscint A scintillation fluid. For [3H]naltrindole and [3H]U69,593 binding, the filters were soaked in 0.1% polyethylenimine for at least 60 min before use. IC50 values will be calculated by least squares fit to a logarithm-probit analysis. Ki values of unlabelled compounds were calculated from the equation Ki=(IC50)/1+S where S=(concentration of radioligand)/(Kd of radioligand) (Cheng and Prusoff, Biochemical Pharmacology, v. 22, p. 3099-3108, 1973).

[2] = molecular target: human μ opioid receptor (Homo sapiens (Human), UniProt P35372); test: Functional activity ([35S]GTPγS binding); type: biochemical; settings: [35S]GTPγS 0.080 nM, CHO cell membranes, 60 min at 30° C., filtration
Experimental: The [^35S]GTPγS assay measures the functional properties of a compound by quantifying the level of G-protein activation following agonist binding in studies using stably transfected cells, and is considered to be a measure of the efficacy of a compound. Membranes from CHO (Chinese Hamster Ovary) cells that stably expressed one type of the cloned human opioid receptor human were used in the experiments. In a final volume of 0.5 mL, 12 different concentrations of each test compound were incubated with 7.5 μg of CHO cell membranes that stably expressed the human p opioid receptor. The assay buffer consisted of 50 mM Tris-HCl, pH 7.4, 3 mM MgCl2, 0.2 mM EGTA, 3 μM GDP, and 100 mM NaCl. The final concentration of [35S]GTPγS was 0.080 nM. Nonspecific binding was measured by inclusion of 10 μM GTPγS. Binding was initiated by the addition of the membranes. After an incubation of 60 min at 30° C., the samples were filtered through Schleicher & Schuell No. 32 glass fiber filters. The filters were washed three times with cold 50 mM Tris-HCl, pH 7.5, and were counted in 2 mL of Ecoscint scintillation fluid.

| Compound | Ki [1] [nM] | EC50 [2] [nM] |
| --- | --- | --- |
| COC1(c2cccc(C(N)=O)c2O)C2CCCC1CN(C)C2 [Compound 49, 2-hydroxy-3-((1R,5S,9r)-9-methoxy-3-methyl-3-azabicyclo[3.3.1]nonan-9-yl)benzamide hydrochloride] | < 1 | < 10 |
| COC1(c2cccc(C(N)=O)c2)C2CCCC1CN(C1COC1)C2 [Compound 50, 3-((1R,5S,9r)-9-methoxy-3-(oxetan-3-yl)-3-azabicyclo[3.3.1]nonan-9-yl)benzamide (S)-2-hydroxysuccinate] | 1 to 5 | 10 to 75 |
| COC1(c2cccc(C(N)=O)c2)C2CCCC1CN(CC1COC1)C2 [Compound 51, 3-((1R,5S,9r)-9-methoxy-3-(oxetan-3-ylmethyl)-3-azabicyclo[3.3.1]nonan-9-yl)benzamide (S)-2-hydroxysuccinate] | < 1 | 10 to 75 |
| COC1(c2ccnc(C(N)=O)c2F)C2CCCC1CN(C)C2 [Compound 53, 3-fluoro-4-((1R,5S,9r)-9-methoxy-3-methyl-3-azabicyclo[3.3.1]nonan-9-yl)picolinamide hydrochloride] | 1 to 5 | > 75 |
| Cl.[2H]C([2H])([2H])N1CC2CCCC(C1)C2(OC)c1cccc(C(N)=O)c1 [Compound 54, 3-((1R,5S,9r)-9-methoxy-3-(trideuteriomethyl)-3-azabicyclo[3.3.1]nonan-9-yl)benzamide hydrochloride] | < 1 | < 10 |
| COC1(c2ccnc(C(N)=O)c2)C2CCCC1CN(C1CCCC1)C2 [Compound 55, 4-((1R,5S,9r)-3-cyclopentyl-9-methoxy-3-azabicyclo[3.3.1]nonan-9-yl)picolinamide hydrochloride] | < 1 | 10 to 75 |
| COC1(c2ccnc(C(N)=O)c2F)C2CCCC1CN(C1CC1)C2 [Compound 57, 4-((1R,5S,9r)-3-cyclopropyl-9-methoxy-3-azabicyclo[3.3.1]nonan-9-yl)-3-fluoropicolinamide hydrochloride] | > 5 | > 75 |
| COC1(c2cccc(C(N)=O)c2)C2CCCC1CN(CC1(O)Cc3ccccc3C1)C2 [Compound 58, 3-((1R,5S,9r)-3-((2-hydroxy-2,3-dihydro-1H-inden-2-yl)methyl)-9-methoxy-3-azabicyclo[3.3.1]nonan-9-yl)benzamide hydrochloride] | < 1 | < 10 |
| COC1(c2cccc(C(N)=O)c2)C2CCCC1CN(Cc1nc3ccccc3[nH]1)C2 [Compound 64, 3-((1R,5S,9r)-3-((1H-benzo[d]imidazol-2-yl)methyl)-9-methoxy-3-azabicyclo[3.3.1]nonan-9-yl)benzamide hydrochloride] | < 1 | < 10 |
| CCN1CC2CCCC(C1)C2(OC)c1ccnc(C(N)=O)c1 [Compound 66, 4-((1R,5S,9r)-3-ethyl-9-methoxy-3-azabicyclo[3.3.1]nonan-9-yl)picolinamide hydrochloride] | 1 to 5 | 10 to 75 |
| COC1(c2ccnc(C(N)=O)c2)C2CCCC1CN(Cc1ccccn1)C2 [Compound 67, 4-((1R,5S,9r)-9-methoxy-3-(pyridin-2-ylmethyl)-3-azabicyclo[3.3.1]nonan-9-yl)picolinamide dihydrochloride] | 1 to 5 | 10 to 75 |
| COC1(c2ccnc(C(N)=O)c2)C2CCCC1CN(Cc1cccnc1)C2 [Compound 68, 4-((1R,5S,9r)-9-methoxy-3-(pyridin-3-ylmethyl)-3-azabicyclo[3.3.1]nonan-9-yl)picolinamide dihydrochloride] | 1 to 5 | 10 to 75 |
| COC1(c2ccnc(C(N)=O)c2)C2CCCC1CN(Cc1ccncc1)C2 [Compound 69, 4-((1R,5S,9r)-9-methoxy-3-(pyridin-4-ylmethyl)-3-azabicyclo[3.3.1]nonan-9-yl)picolinamide hydrochloride] | > 5 | > 75 |
| COC1(c2ccc(C(N)=O)s2)C2CCCC1CN(C1CCOCC1)C2 [Compound 71, 5-((1R,5S,9r)-9-methoxy-3-(tetrahydro-2H-pyran-4-yl)-3-azabicyclo[3.3.1]nonan-9-yl)thiophene-2-carboxamide hydrochloride] | > 5 | > 75 |
| COC1(c2ccnc(C(N)=O)c2)C2CCCC1CN(CC1(O)CC1)C2 [Compound 72, 4-((1R,5S,9r)-3-((1-hydroxycyclopropyl)methyl)-9-methoxy-3-azabicyclo[3.3.1]nonan-9-yl)picolinamide hydrochloride] | 1 to 5 | > 75 |
| COC1(c2ccnc(C(N)=O)c2)C2CCCC1CN(CC1(O)Cc3ccccc3C1)C2 [Compound 73, 4-((1R,5S,9r)-3-((2-hydroxy-2,3-dihydro-1H-inden-2-yl)methyl)-9-methoxy-3-azabicyclo[3.3.1]nonan-9-yl)picolinamide hydrochloride] | < 1 | < 10 |
| COC1(c2ccnc(C(N)=O)c2)C2CCCC1CN(C1CCOC1)C2 [Compound 74, 4-((1R,5S,9r)-9-methoxy-3-(tetrahydrofuran-3-yl)-3-azabicyclo[3.3.1]nonan-9-yl)picolinamide hydrochloride] | 1 to 5 | 10 to 75 |
| COC1(c2cccc(C(N)=O)c2)C2CCCC1CN(Cc1cnn[nH]1)C2 [Compound 75, 3-((1R,5S,9r)-3-((1H-1,2,3-triazol-5-yl)methyl)-9-methoxy-3-azabicyclo[3.3.1]nonan-9-yl)benzamide hydrochloride] | < 1 | < 10 |
| COC1(c2ccnc(C(N)=O)c2)C2CCCC1CN(C(C)C)C2 [Compound 76, 4-((1R,5S,9r)-3-isopropyl-9-methoxy-3-azabicyclo[3.3.1]nonan-9-yl)picolinamide hydrochloride] | 1 to 5 | 10 to 75 |
| COC1(c2ccnc(C(N)=O)c2)C2CCCC1CN(C1CC3(CCC3)C1)C2 [Compound 77, 4-((1R,5S,9r)-9-methoxy-3-(spiro[3.3]heptan-2-yl)-3-azabicyclo[3.3.1]nonan-9-yl)picolinamide hydrochloride] | < 1 | < 10 |
| COC1(c2ccnc(C(N)=O)c2)C2CCCC1CN([C@@H]1CCOC1)C2 (stereo partly drawn) [Compound 78, 4-((1R,5S,9s)-9-methoxy-3-((S)-tetrahydrofuran-3-yl)-3-azabicyclo[3.3.1]nonan-9-yl)picolinamide hydrochloride] | 1 to 5 | 10 to 75 |
| COC1(c2ccnc(C(N)=O)c2)C2CCCC1CN(C1CC3(COC3)C1)C2 [Compound 81, 4-((1R,5S,9r)-9-methoxy-3-(2-oxaspiro[3.3]heptan-6-yl)-3-azabicyclo[3.3.1]nonan-9-yl)picolinamide (S)-2-hydroxysuccinate] | < 1 | 10 to 75 |
| COC1(c2ccnc(C(N)=O)c2)C2CCCC1CN(C1CC(F)(F)C1)C2 [Compound 82, 4-((1R,5S,9r)-3-(3,3-difluorocyclobutyl)-9-methoxy-3-azabicyclo[3.3.1]nonan-9-yl)picolinamide hydrochloride] | 1 to 5 | 10 to 75 |
| COCCN1CC2CCCC(C1)C2(OC)c1ccnc(C(N)=O)c1 [Compound 83, 4-((1R,5S,9r)-9-methoxy-3-(2-methoxyethyl)-3-azabicyclo[3.3.1]nonan-9-yl)picolinamide hydrochloride] | 1 to 5 | 10 to 75 |
| COC1(c2ccnc(C(N)=O)c2)C2CCCC1CN(CCN1CCNC1=O)C2 [Compound 85, 4-((1R,5S,9r)-9-methoxy-3-(2-(2-oxoimidazolidin-1-yl)ethyl)-3-azabicyclo[3.3.1]nonan-9-yl)picolinamide hydrochloride] | 1 to 5 | 10 to 75 |
| COC1(c2ccnc(C(N)=O)c2)C2CCCC1CN(CCC1CC1)C2 [Compound 86, 4-((1R,5S,9r)-3-(2-cyclopropylethyl)-9-methoxy-3-azabicyclo[3.3.1]nonan-9-yl)picolinamide hydrochloride] | 1 to 5 | 10 to 75 |
| COC1(c2ccnc(C(N)=O)c2)C2CCCC1CN(C1CC(c3ccccc3)C1)C2 [Compound 87, 4-((1R,5S,9R)-9-methoxy-3-((1r,3R)-3-phenylcyclobutyl)-3-azabicyclo[3.3.1]nonan-9-yl)picolinamide hydrochloride] | < 1 | < 10 |
